Here are results for ten molecules from US5604211A, “Saccharide for supplementing energy to living body, and uses” (priority 1991, dated 1997).

Data set [1] can be described thus: Digestion test in vitro, enzyme of small intestinal mucous membrane. It counts as in vitro ADME. Conditions: small intestinal mucosal enzyme, Tables 1 and 2, read-out: Hydrolysis rate. The procedure: (§1) In accordance with the method reported in K. Okada et al., Journal of Japanese Society of Nutrition and Food Science, Vol.43, No.1, pp.23-29 (1990), a crystalline neotrehalose specimen formulated by the method in Example A1-2 was prepared as an aqueous solution which was then tested for its digestibility in vitro: The digestibility was determined with the following equation and expressed as hydrolysis rate (%): [formula]
Similarly as above, several kinds of disaccharides were tested for their digestibility using the enzyme of the small intestinal mucous membrane.

Data set [2] in a line: Utilization test in vivo, intravenous instillation to healthy volunteers (blood sugar, insulin, urine). On the set-up: species or system human. Particulars: for dose excreted: urine, 50000 mg, read-out: amount of glucose in the urine. The procedure: A neotrehalose specimen prepared by the method in Example A1-2 was treated to remove pyrogens in the usual manner, and 50 g of the resultant neotrehalose specimen was in accordance with the method reported in Matsuzaki, Yakubutsu Ryoho, Vol.6, No.2, pp.65-72 (1973), formulated as a 10 w/v % aqueous solution which was then intravenously administered to 2 healthy volunteers by instillation. Their blood was sampled at prescribed time intervals and blood sugar and insulin levels were measured, along with the amount of neotrehalose secreted in their urine. As controls, glucose and maltose were used.

For data set [3] the following is noted: acidic conditions; cited from earlier work.
In another data set the test system is amylases. Conditions: Japanese Patent Laid-Open No.240,758/88; cited from earlier work.
For data set [4] the following is noted: prior art, Japanese patent publications; cited from earlier work.
Data set [5] in a line: Digestion test in vitro, amylopsin. Format: in vitro ADME. Particulars: Table 1, read-out: Hydrolysis rate. The procedure: as §1
Data set [6] can be described thus: Utilization test in vivo, oral administration to healthy volunteers (blood sugar and insulin). Set-up: species or system human. The source says: In accordance with the method described in H. Atsuji et al., Journal of Clinical Nutrition, Vol.41, Vol.2, pp.200-208 (1972), 30 g of a neotrehalose specimen was formulated as a 20 w/v % aqueous solution which was then orally administered to 3 healthy volunteers (men) and their blood was sampled at prescribed time intervals and tested for blood sugar and insulin levels. As a control, glucose was used.

The nature of data set [7]: Digestion test in vitro, gastric juice. It counts as in vitro ADME. Particulars: Table 1, read-out: Hydrolysis rate. The procedure: as §1
The next data set relates to dd mice. Briefly: Acute toxicity test, oral, mice. It counts as in vivo, mouse. Conditions: 7 week-old dd mice. From the text:
A crystalline neotrehalose specimen, prepared by the method in Example A1-2, was orally administered to 7 week-old dd mice as an acute toxicity test. […] Therefore, the toxicity of the tested substance appears to be extremely low.

Data set [8] is described as follows: Digestion test in vitro, salivary amylase. Format: in vitro ADME. Conditions: Table 1, read-out: Hydrolysis rate. As for the experimental part: as §1
For data set [9] the following is noted: when the dose and administration method are not correctly chosen; cited from earlier work.
Where [10] appears, read: human, 50 g as 10 w/v % aqueous solution, intravenous instillation, 2 healthy volunteers.
The mark [11] stands for this setting: 50 g as 10 w/v % aqueous solution, intravenous instillation, 2 healthy volunteers.
The mark [12] stands for this setting: 30 g as 20 w/v % aqueous solution, oral, 3 healthy volunteers, about.

`OC[C@H]1O[C@@H](O[C@@H]2O[C@H](CO)[C@@H](O)[C@H](O)[C@H]2O)[C@H](O)[C@@H](O)[C@@H]1O` [Isotrehalose (β,β-trehalose), β,β-trehalose]: the metabolised in data set [1] stood at 0.1%.

With `OC[C@H]1O[C@H](O[C@H]2[C@H](O)[C@@H](O)[C@H](O)O[C@@H]2CO)[C@H](O)[C@@H](O)[C@@H]1O` [Maltose, reference compound], the dose excreted in data set [2] (setting [10]) is below 20%.

Turning to `OC[C@H]1O[C@@](CO)(O[C@H]2O[C@H](CO)[C@@H](O)[C@H](O)[C@H]2O)[C@@H](O)[C@@H]1O` [Sucrose], the “hydrolysis into glucose and fructose” value in [3] is reported as “readily hydrolyzed”.

With `OC[C@H]1O[C@H](O[C@H]2O[C@H](CO)[C@@H](O)[C@H](O)[C@H]2O)[C@H](O)[C@@H](O)[C@@H]1O` [Trehalose (α,α-trehalose), α,α-trehalose], in data set [1], the metabolised stood at 0.4%. The “hydrolysis by enzymes such as amylases” value in the data set with amylases is “not readily hydrolyzed”. Besides, the “metabolism and utilization in vivo” value in [4] is “not readily metabolized and absorbed by the human body”.

Regarding `OC[C@H]1OC(O)[C@H](O)[C@@H](O)[C@@H]1O` (stereo partly drawn) [glucose, reference compound], in data set [2] (human, in vivo, iv), the blood sugar level entry is “greatly increased” and the insulin level result is “greatly increased”. Also, in data set [2] (setting [10]), the dose excreted was below 10%.

Regarding `OC[C@@H](O)[C@@H](O[C@@H]1O[C@H](CO)[C@H](O)[C@H](O)[C@H]1O)[C@H](O)[C@@H](O)CO` [lactitol], the “metabolism and utilization in vivo” value in [4] was “not readily metabolized and utilized in vivo”.

For `OC[C@@H](O)[C@@H](O[C@H]1O[C@H](CO)[C@@H](O)[C@H](O)[C@H]1O)[C@H](O)[C@@H](O)CO` [maltitol], in data set [4], the “metabolism and utilization in vivo” value was “not readily metabolized and utilized in vivo”.

Regarding `OC[C@H]1O[C@@H](O[C@H]2O[C@H](CO)[C@@H](O)[C@H](O)[C@H]2O)[C@H](O)[C@@H](O)[C@@H]1O` [neotrehalose, O-α-D-glucopyranosyl β-D-glucopyranoside], the blood sugar level entry in data set [2] (setting [11]) is on record as “slightly increased”. Also, the insulin level result in data set [2] (setting [11]) is “did not greatly increase”. Moreover, the “dynamics of blood sugar and insulin compared with maltose” value in data set [2] (50 g intravenous, controls glucose and maltose) is listed as “the same dynamics as maltose”. Moreover, the dose excreted in data set [2] (setting [10]) was below 20%. Also, the metabolised turned out to be 43% in data set [1], 0% in [5], 0% in [7] and 0% in data set [8]. Also, the “time of maximum value of blood sugar level after oral administration” value in data set [6] (setting [12]) fell in the range of 0.5 to 1 h. The “time of maximum value of insulin level after oral administration” value in data set [6] (setting [12]) is 0.5 to 1 h. In [6] (30 g oral, control glucose), the “behaviour of blood sugar and insulin levels compared with glucose” value is given as “behaved similarly as glucose”. Moreover, the toxicity entry in the data set with dd mice is “extremely low”. Moreover, in the data set with dd mice (difficult to administer a higher dose), the “highest administered dose without animal death” value turned out to be 5 g. Also, the animal death result with dd mice (up to 5 g) is reported as “no animal death”.

As to `OC[C@@H](O)[C@@H](O)[C@H](O)[C@@H](O)CO` [sorbitol], in data set [9], the diarrhea entry is given as “acute diarrhea”.

Regarding `OC[C@@H](O)[C@H](O)[C@@H](O)CO` [xylitol], the diarrhea result in [9] is “acute diarrhea”.
